From patent US7803769B2 (priority 2006, dated 2010)
Bridge positions count the residues as written; N and C are the ends. Square brackets hold non-standard residues; d marks the D form. Peptide text beside a SMILES is read from it. 1Nal = N[C@@H](Cc1cccc2ccccc12)C(=O)O

What was measured:
human Kv1.1 (HEK293) = target: T1, human Kv1.1 (HEK293) (Homo sapiens, UniProt Q09470); assay: cell-based
T1 construct: expressed in transfected cells; host or cells: HEK293

human Kv1.3 (CHO) = target: T2, human Kv1.3 (CHO) (Homo sapiens, UniProt P22001); assay: cell-based
T2 construct: expressed in transfected cells
T2 sequence (P22001 whole entry): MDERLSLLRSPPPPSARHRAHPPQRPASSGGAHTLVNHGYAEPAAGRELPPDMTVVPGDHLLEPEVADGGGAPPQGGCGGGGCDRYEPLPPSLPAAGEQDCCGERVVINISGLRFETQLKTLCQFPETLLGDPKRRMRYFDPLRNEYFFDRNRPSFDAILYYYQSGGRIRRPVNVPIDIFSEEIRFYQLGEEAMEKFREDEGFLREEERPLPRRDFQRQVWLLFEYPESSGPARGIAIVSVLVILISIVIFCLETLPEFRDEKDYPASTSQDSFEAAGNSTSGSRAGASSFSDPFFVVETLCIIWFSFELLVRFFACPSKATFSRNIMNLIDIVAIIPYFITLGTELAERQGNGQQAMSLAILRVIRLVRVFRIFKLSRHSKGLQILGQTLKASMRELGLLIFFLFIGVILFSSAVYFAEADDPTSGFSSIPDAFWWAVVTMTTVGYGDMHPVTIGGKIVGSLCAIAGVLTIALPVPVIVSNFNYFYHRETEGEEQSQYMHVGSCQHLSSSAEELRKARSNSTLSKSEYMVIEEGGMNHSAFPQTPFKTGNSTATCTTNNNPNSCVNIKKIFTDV

T1 sequence (Q09470 whole entry): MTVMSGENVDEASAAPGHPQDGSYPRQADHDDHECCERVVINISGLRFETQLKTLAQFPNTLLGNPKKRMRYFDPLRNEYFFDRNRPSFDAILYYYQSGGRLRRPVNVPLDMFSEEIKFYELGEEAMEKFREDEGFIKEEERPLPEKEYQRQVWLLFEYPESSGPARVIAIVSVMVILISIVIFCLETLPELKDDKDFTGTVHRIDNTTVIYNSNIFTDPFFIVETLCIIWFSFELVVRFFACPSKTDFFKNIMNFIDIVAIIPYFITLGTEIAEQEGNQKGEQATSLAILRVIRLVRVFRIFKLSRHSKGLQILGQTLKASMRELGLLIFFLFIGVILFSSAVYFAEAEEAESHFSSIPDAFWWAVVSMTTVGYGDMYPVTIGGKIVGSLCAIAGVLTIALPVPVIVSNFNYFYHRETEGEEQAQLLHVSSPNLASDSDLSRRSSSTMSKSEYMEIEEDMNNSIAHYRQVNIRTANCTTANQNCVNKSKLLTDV

| Compound | IC50 (human Kv1.1 (HEK293)) [pM] | IC50 (human Kv1.3 (CHO)) [nM] |
| --- | --- | --- |
| CC[C@H](C)[C@@H]1NC(=O)[C@H](CCCCN)NC(=O)[C@@H](NC(=O)[C@H](CCCCN)NC(=O)[C@H](CCCNC(=N)N)NC(=O)[C@H](CC(N)=O)NC(=O)[C@@H](NC(=O)[C@@H](NC(=O)[C@@H](NC(=O)CN)C(C)C)[C@@H](C)CC)[C@@H](C)CC)CSSC[C@@H]2NC(=O)[C@H](CCCCN)NC(=O)CNC(=O)[C@H](Cc3ccccc3)NC(=O)[C@H](CCCNC(=N)N)NC(=O)[C@H](CCSC)NC(=O)CNC(=O)[C@H](C)NC(=O)[C@H](CCCCN)NC(=O)[C@H](CCCCN)NC(=O)[C@@H]3CSSC[C@@H](C(=O)N[C@H](C(=O)N4CCC[C@H]4C(=O)N[C@@H](CCCCN)C(=O)O)[C@@H](C)O)NC(=O)[C@H](Cc4c[nH]cn4)NC(=O)[C@H](CSSC[C@H](NC(=O)[C@H](CCC(N)=O)NC(=O)[C@H](CCCNC(=N)N)NC(=O)[C@H](CO)NC1=O)C(=O)N[C@@H](CC(C)C)C(=O)N[C@@H](CCC(=O)O)C(=O)N1CCC[C@H]1C(=O)N3)NC(=O)[C@H](CCCCN)NC(=O)CNC(=O)[C@H](CC(N)=O)NC(=O)[C@H](CCSC)NC2=O [V6R] (H-GVIINRKCKISRQCLEPCKKAGMRFGKCMNGKCHCTPK-OH; disulfide 8-28, 14-33, 18-35) | 2.4 | 0.00865 |
| CC[C@H](C)[C@@H]1NC(=O)[C@H](CCCCN)NC(=O)[C@@H](NC(=O)[C@H](CCCCN)NC(=O)[C@H](Cc2cccc3ccccc23)NC(=O)[C@H](CC(N)=O)NC(=O)[C@@H](NC(=O)[C@@H](NC(=O)[C@@H](NC(=O)CN)C(C)C)[C@@H](C)CC)[C@@H](C)CC)CSSC[C@@H]2NC(=O)[C@H](CCCCN)NC(=O)CNC(=O)[C@H](Cc3ccccc3)NC(=O)[C@H](CCCNC(=N)N)NC(=O)[C@H](CCSC)NC(=O)CNC(=O)[C@H](C)NC(=O)[C@H](CCCCN)NC(=O)[C@H](CCCCN)NC(=O)[C@@H]3CSSC[C@@H](C(=O)N[C@H](C(=O)N4CCC[C@H]4C(=O)N[C@@H](CCCCN)C(=O)O)[C@@H](C)O)NC(=O)[C@H](Cc4c[nH]cn4)NC(=O)[C@H](CSSC[C@H](NC(=O)[C@H](CCC(N)=O)NC(=O)[C@H](CCCNC(=N)N)NC(=O)[C@H](CO)NC1=O)C(=O)N[C@@H](CC(C)C)C(=O)N[C@@H](CCC(=O)O)C(=O)N1CCC[C@H]1C(=O)N3)NC(=O)[C@H](CCCCN)NC(=O)CNC(=O)[C@H](CC(N)=O)NC(=O)[C@H](CCSC)NC2=O [V6Nal] (H-GVIIN[1Nal]KCKISRQCLEPCKKAGMRFGKCMNGKCHCTPK-OH; disulfide 8-28, 14-33, 18-35) | < 1.52 | 0.021 |
| CC[C@H](C)[C@@H]1NC(=O)[C@H](CCCCN)NC(=O)[C@@H](NC(=O)[C@H](CCCCN)NC(=O)[C@@H](NC(=O)[C@H](CC(N)=O)NC(=O)[C@@H](NC(=O)[C@@H](NC(=O)[C@@H](NC(=O)CN)C(C)C)[C@@H](C)CC)[C@@H](C)CC)C(C)C)CSSC[C@@H]2NC(=O)[C@H](CCCCN)NC(=O)CNC(=O)[C@H](Cc3ccccc3)NC(=O)[C@H](CCCNC(=N)N)NC(=O)[C@H](CCSC)NC(=O)CNC(=O)[C@H](C)NC(=O)[C@H](Cc3cccc4ccccc34)NC(=O)[C@H](CCCCN)NC(=O)[C@@H]3CSSC[C@@H](C(=O)N[C@H](C(=O)N4CCC[C@H]4C(=O)N[C@@H](CCCCN)C(=O)O)[C@@H](C)O)NC(=O)[C@H](Cc4c[nH]cn4)NC(=O)[C@H](CSSC[C@H](NC(=O)[C@H](CCC(N)=O)NC(=O)[C@H](CCCNC(=N)N)NC(=O)[C@H](CO)NC1=O)C(=O)N[C@@H](CC(C)C)C(=O)N[C@@H](CCC(=O)O)C(=O)N1CCC[C@H]1C(=O)N3)NC(=O)[C@H](CCCCN)NC(=O)CNC(=O)[C@H](CC(N)=O)NC(=O)[C@H](CCSC)NC2=O [K20Nal] (H-GVIINVKCKISRQCLEPCK[1Nal]AGMRFGKCMNGKCHCTPK-OH; disulfide 8-28, 14-33, 18-35) | < 1.52 | 0.0135 |
| CC[C@H](C)[C@H](NC(=O)[C@H](C)NC(=O)CN)C(=O)N[C@H](C(=O)N[C@@H](CC(N)=O)C(=O)N[C@H](C(=O)N[C@@H](CCCCN)C(=O)N[C@H]1CSSC[C@@H]2NC(=O)[C@H](CCCCN)NC(=O)CNC(=O)[C@H](Cc3ccccc3)NC(=O)[C@H](CCCNC(=N)N)NC(=O)[C@H](CCSC)NC(=O)CNC(=O)[C@H](C)NC(=O)[C@H](CCCCN)NC(=O)[C@H](CCCCN)NC(=O)[C@@H]3CSSC[C@@H](C(=O)N[C@H](C(=O)N4CCC[C@H]4C(=O)N[C@@H](CCCCN)C(=O)O)[C@@H](C)O)NC(=O)[C@H](Cc4c[nH]cn4)NC(=O)[C@H](CSSC[C@H](NC(=O)[C@H](CCC(N)=O)NC(=O)[C@H](CCCNC(=N)N)NC(=O)[C@H](CO)NC(=O)[C@H]([C@@H](C)CC)NC(=O)[C@H](CCCCN)NC1=O)C(=O)N[C@@H](CC(C)C)C(=O)N[C@@H](CCC(=O)O)C(=O)N1CCC[C@H]1C(=O)N3)NC(=O)[C@H](CCCCN)NC(=O)CNC(=O)[C@H](CC(N)=O)NC(=O)[C@H](CCSC)NC2=O)C(C)C)[C@@H](C)CC [V2A] (H-GAIINVKCKISRQCLEPCKKAGMRFGKCMNGKCHCTPK-OH; disulfide 8-28, 14-33, 18-35) | 9.94 | 0.0818 |
| CC[C@H](C)[C@@H]1NC(=O)[C@H](CCCCN)NC(=O)[C@@H](NC(=O)[C@H](CCCCN)NC(=O)[C@@H](NC(=O)[C@H](CC(N)=O)NC(=O)[C@@H](NC(=O)[C@@H](NC(=O)[C@@H](NC(=O)CN)C(C)C)[C@@H](C)CC)[C@@H](C)CC)C(C)C)CSSC[C@@H]2NC(=O)[C@H](CCCCN)NC(=O)CNC(=O)[C@H](Cc3ccccc3)NC(=O)[C@H](CCCNC(=N)N)NC(=O)[C@H](Cc3cccc4ccccc34)NC(=O)CNC(=O)[C@H](C)NC(=O)[C@H](CCCCN)NC(=O)[C@H](CCCCN)NC(=O)[C@@H]3CSSC[C@@H](C(=O)N[C@H](C(=O)N4CCC[C@H]4C(=O)N[C@@H](CCCCN)C(=O)O)[C@@H](C)O)NC(=O)[C@H](Cc4c[nH]cn4)NC(=O)[C@H](CSSC[C@H](NC(=O)[C@H](CCC(N)=O)NC(=O)[C@H](CCCNC(=N)N)NC(=O)[C@H](CO)NC1=O)C(=O)N[C@@H](CC(C)C)C(=O)N[C@@H](CCC(=O)O)C(=O)N1CCC[C@H]1C(=O)N3)NC(=O)[C@H](CCCCN)NC(=O)CNC(=O)[C@H](CC(N)=O)NC(=O)[C@H](CCSC)NC2=O [M23Nal] (H-GVIINVKCKISRQCLEPCKKAG[1Nal]RFGKCMNGKCHCTPK-OH; disulfide 8-28, 14-33, 18-35) | 64.4 | 0.036 |
| CC[C@H](C)[C@@H]1NC(=O)[C@H](CCCCN)NC(=O)[C@@H](NC(=O)[C@H](CCCCN)NC(=O)[C@@H](NC(=O)[C@H](CC(N)=O)NC(=O)[C@@H](NC(=O)[C@@H](NC(=O)[C@H](Cc2cccc3ccccc23)NC(=O)CN)[C@@H](C)CC)[C@@H](C)CC)C(C)C)CSSC[C@@H]2NC(=O)[C@H](CCCCN)NC(=O)CNC(=O)[C@H](Cc3ccccc3)NC(=O)[C@H](CCCNC(=N)N)NC(=O)[C@H](CCSC)NC(=O)CNC(=O)[C@H](C)NC(=O)[C@H](CCCCN)NC(=O)[C@H](CCCCN)NC(=O)[C@@H]3CSSC[C@@H](C(=O)N[C@H](C(=O)N4CCC[C@H]4C(=O)N[C@@H](CCCCN)C(=O)O)[C@@H](C)O)NC(=O)[C@H](Cc4c[nH]cn4)NC(=O)[C@H](CSSC[C@H](NC(=O)[C@H](CCC(N)=O)NC(=O)[C@H](CCCNC(=N)N)NC(=O)[C@H](CO)NC1=O)C(=O)N[C@@H](CC(C)C)C(=O)N[C@@H](CCC(=O)O)C(=O)N1CCC[C@H]1C(=O)N3)NC(=O)[C@H](CCCCN)NC(=O)CNC(=O)[C@H](CC(N)=O)NC(=O)[C@H](CCSC)NC2=O [V2Nal] (H-G[1Nal]IINVKCKISRQCLEPCKKAGMRFGKCMNGKCHCTPK-OH; disulfide 8-28, 14-33, 18-35) | 2.46 | 0.0116 |
| CC[C@H](C)[C@@H]1NC(=O)[C@H](CCCCN)NC(=O)[C@@H](NC(=O)[C@H](CCCCN)NC(=O)[C@@H](NC(=O)[C@H](CC(N)=O)NC(=O)[C@@H](NC(=O)[C@@H](NC(=O)[C@@H](NC(=O)CN)C(C)C)[C@@H](C)CC)[C@@H](C)CC)C(C)C)CSSC[C@@H]2NC(=O)[C@H](CCCCN)NC(=O)CNC(=O)[C@H](Cc3ccccc3)NC(=O)[C@H](CCCNC(=N)N)NC(=O)[C@H](CCSC)NC(=O)CNC(=O)[C@H](C)NC(=O)[C@H](CCCCN)NC(=O)[C@H](CCCCN)NC(=O)[C@@H]3CSSC[C@@H](C(=O)N[C@H](C(=O)N4CCC[C@H]4C(=O)N[C@@H](CCCCN)C(=O)O)[C@@H](C)O)NC(=O)[C@H](Cc4c[nH]cn4)NC(=O)[C@H](CSSC[C@H](NC(=O)[C@H](CCC(N)=O)NC(=O)[C@H](CCCNC(=N)N)NC(=O)[C@H](CO)NC1=O)C(=O)N[C@@H](CC(C)C)C(=O)N[C@@H](CCC(=O)O)C(=O)N1CCC[C@H]1C(=O)N3)NC(=O)[C@H](CCCCN)NC(=O)CNC(=O)[C@H](CC(N)=O)NC(=O)[C@H](Cc1cccc3ccccc13)NC2=O [M29Nal] (H-GVIINVKCKISRQCLEPCKKAGMRFGKC[1Nal]NGKCHCTPK-OH; disulfide 8-28, 14-33, 18-35) | 46.9 | 0.0935 |
| CC[C@H](C)[C@@H]1NC(=O)[C@H](CCCCN)NC(=O)[C@@H](NC(=O)[C@H](CCCCN)NC(=O)[C@@H](NC(=O)[C@H](CC(N)=O)NC(=O)[C@@H](NC(=O)[C@@H](NC(=O)[C@@H](NC(=O)CN)C(C)C)[C@@H](C)CC)[C@@H](C)CC)C(C)C)CSSC[C@@H]2NC(=O)[C@H](CCCCN)NC(=O)CNC(=O)[C@H](Cc3ccccc3)NC(=O)[C@H](CCCNC(=N)N)NC(=O)[C@H](CCSC)NC(=O)CNC(=O)[C@H](C)NC(=O)[C@H](CCCCN)NC(=O)[C@H](Cc3cccc4ccccc34)NC(=O)[C@@H]3CSSC[C@@H](C(=O)N[C@H](C(=O)N4CCC[C@H]4C(=O)N[C@@H](CCCCN)C(=O)O)[C@@H](C)O)NC(=O)[C@H](Cc4c[nH]cn4)NC(=O)[C@H](CSSC[C@H](NC(=O)[C@H](CCC(N)=O)NC(=O)[C@H](CCCNC(=N)N)NC(=O)[C@H](CO)NC1=O)C(=O)N[C@@H](CC(C)C)C(=O)N[C@@H](CCC(=O)O)C(=O)N1CCC[C@H]1C(=O)N3)NC(=O)[C@H](CCCCN)NC(=O)CNC(=O)[C@H](CC(N)=O)NC(=O)[C@H](CCSC)NC2=O [K19Nal] (H-GVIINVKCKISRQCLEPC[1Nal]KAGMRFGKCMNGKCHCTPK-OH; disulfide 8-28, 14-33, 18-35) | < 1.52 | 0.0172 |
